# From US20160024086A1, “AZAINDOLE RETINOIC ACID RECEPTOR-RELATED ORPHAN RECEPTOR MODULATORS AND USES THEREOF” (INNOV17 LLC, priority 2014, published 2016)
# What was measured:
# Assay type in all cases: cell-based
# Conditions in all cases: 72 h; human CD4+ T cells under TH17-polarizing conditions, 3 days, supernatant ELISA
# [1] = system: IL-17F; test: Human TH17 cytokine inhibition as measured by ELISA (IL-17F)
# Description: (§1) Human TH17 Cytokine Inhibition as Measured by ELISA
# (§2) Peripheral blood mononuclear cells (PBMCs) were sourced from freshly prepared leukocyte enriched plasma (buffy coat) from healthy donors (New York Blood Center). PBMCs were isolated by density gradient centrifugation using Ficoll-Paque™ PLUS (GE Healthcare). Human CD4+ T cells were seeded into 96-well plates (5×10^4 cells/well) and activated with plate-bound anti-human (h)-CD3 antibody and soluble h-aCD28 (both at 1 ug/ml; eBioscience) and differentiated into TH17 cells with 20 ng/mL h-IL-6, 5 ng/mL h-TGF-β1, 10 ng/mL h-IL-23 (eBioscience) and 10 ng/mL IL-1β (Miltenyi Biotec) in serum-free TexMACS Medium (Miltenyi Biotec) supplemented with 1% Penicillin/Streptomycin (Lonza) for 3 days. CD4+ T cells propagated under TH17-polarizing conditions were cultured in the presence or absence of various concentrations of compounds with a final concentration of 0.1% DMSO. Supernatants were collected and stored at −20° C. until assayed for IL-17A, IL-17F and IL-21 levels by “Ready-Set-Go” ELISA kits (eBioscience) as per manufacturer's instructions. Endpoint absorbance was read at 450 nm using a microplate reader (Perkin Elmer).
# [2] = system: IL-22; test: Human TH17 cytokine inhibition as measured by ELISA (IL-22)
# [3] = system: IL-17A; test: Human TH17 cytokine inhibition as measured by ELISA (IL-17A)
# Description: as §1, §2
# [4] = system: IL-21; test: Human TH17 cytokine inhibition as measured by ELISA (IL-21)
# Description: as §1, §2
SMILES,IC50 [1] [µM],IC50 [2] [µM],IC50 [3] [µM],IC50 [4] [µM]
"O=C(Cc1ccccc1)N1CCC(Cn2ccc3nc(-c4cn[nH]c4)ccc32)CC1 [Example 7, 1-(4-((5-(1H-pyrazol-4-yl)-1H-pyrrolo[3,2-b]pyridin-1-yl)methyl)piperidin-1-yl)-2-phenylethanone]",< 10,–,< 10,< 10
"CC1(C)CC(Cn2ccc3nc(-c4cn[nH]c4)ccc32)CN1C(=O)c1ccccc1 (stereo not drawn) [Example 19, (4-((5-(1H-pyrazol-4-yl)-1H-pyrrolo[3,2-b]pyridin-1-yl)methyl)-2,2-dimethylpyrrolidin-1-yl)(phenyl)methanone]",< 10,–,< 10,< 10
"O=S(=O)(c1ccccc1)N1CCC(Cn2ccc3nc(-c4cn[nH]c4)ccc32)CC1 [Example 30, 1-((1-(phenylsulfonyl)piperidin-4-yl)methyl)-5-(1H-pyrazol-4-yl)-1H-pyrrolo[3,2-b]pyridine]",< 10,< 10,< 10,< 10
"O=S(=O)(Cc1ccccc1)N1CCC(Cn2ccc3nc(-c4cn[nH]c4)ccc32)CC1 [Example 32, 1-((1-(benzylsulfonyl)piperidin-4-yl)methyl)-5-(1H-pyrazol-4-yl)-1H-pyrrolo[3,2-b]pyridine]",< 10,< 10,< 10,< 10

# The remaining lines, values ahead:
IC50 [1] [µM],IC50 [2] [µM],IC50 [3] [µM],IC50 [4] [µM],SMILES
< 10,< 10,< 10,< 10,"C[C@H]1C[C@H](Cn2ccc3nc(-c4cn[nH]c4)ccc32)CN1C(=O)CCc1ccccc1 (racemic) [Example 40, rac.-trans-1-(4-((5-(1H-pyrazol-4-yl)-1H-pyrrolo[3,2-b]pyridin-1-yl)methyl)-2-methylpyrrolidin-1-yl)-3-phenylpropan-1-one]"
< 10,–,< 10,< 10,"C[C@@H]1C[C@H](Cn2ccc3nc(-c4cn[nH]c4)ccc32)CN1C(=O)CCc1ccccc1 (racemic) [Example 41, rac.-cis-1-(4-((5-(1H-pyrazol-4-yl)-1H-pyrrolo[3,2-b]pyridin-1-yl)methyl)-2-methylpyrrolidin-1-yl)-3-phenylpropan-1-one]"
< 10,–,< 10,< 10,"O=C(CCc1ccccc1)N1CCC(Cn2ccc3nc(-c4cn[nH]c4)ccc32)CC1 [Example 3, 1-(4-((5-(1H-pyrazol-4-yl)-1H-pyrrolo[3,2-b]pyridin-1-yl)methyl)piperidin-1-yl)-3-phenylpropan-1-one]"
< 10,–,< 10,< 10,"O=C(CC1CCCCC1)N1CCC(Cn2ccc3nc(-c4cn[nH]c4)ccc32)CC1 [Example 4, 1-(4-((5-(1H-pyrazol-4-yl)-1H-pyrrolo[3,2-b]pyridin-1-yl)methyl)piperidin-1-yl)-2-cyclohexylethanone]"
